From US10328113B2, “Method for preventing or treating an allergic disease using extract from illicium verum” (Korea Institute of Oriental Medicine, priority 2012, dated 2019)

Experiments:
IL-4 = IL-4 secretion inhibition, PMA and A23187-stimulated MC/9 mast cells (ELISA); type: cell-based; conditions: Mus musculus, Mast cell; positive control 10 nM; PMA + A23187, 7 hr; read-out: Inhibition rate of IL-4 (%)
Experimental: (§1) MC/9 mouse mast cells seeded in a 96-well plate were treated with 20 nM PMA (Phorbol Myristate Acetate) and 0.5 μM or 1 μM calcium ionophore A23187, together with various concentrations of the Illicium verum extract (0, 25, 50, 100, 200 and 400 μg/ml). […] Seven hour later, the secreted amount of cytokines in medium was measured using the ELISA kit (R&D systems Inc., Minneapolis, USA). The 100% activity was calculated with referring to difference of the secreted cytokine amount between the untreated group and the treated group with PMA and A23187.
(§2) The secretion amount was calculated as follows: [1−(the amount of the secreted cytokine in the treated group−the amount of the secreted cytokine in the untreated group)/(the amount of secreted […] in the untreated group]×100.
(§3) The inhibition rate was calculated as follows: [1−(the amount of the secreted cytokine in the treated group−the amount of the secreted cytokine in the untreated group)/(the amount of secreted cytokine in positive control−the amount of the secreted cytokine in the untreated group]×100.
(§4) All data were expressed as mean±standard deviation. Student's t-test was used to examine differences among groups and the data with p<0.05 were considered as statistically significant.

IL-8 = IL-8 secretion inhibition, PMA and A23187-stimulated MC/9 mast cells (ELISA); type: cell-based; conditions: Mus musculus, Mast cell; positive control 10 nM; PMA + A23187, 7 hr; read-out: Inhibition rate of IL-8 (%)
Experimental: as §1, §2, §3, §4

SMILES: C[C@@H]1C[C@H]2[C@@H]3CCC4=CC(=O)C=C[C@]4(C)[C@@]3(F)[C@@H](O)C[C@]2(C)[C@@]1(O)C(=O)CO [Dex, dexamethasone]
- inhibition at 0.01 µM (IL-4): 0.4%
- inhibition at 0.01 µM (IL-8): 23%
